Patent US20210137961A1, “Compositions and Methods for Treating Dry Eye Diseases” (priority 2017, published 2021)
Values after ≈ are worked out from the molar mass of the structure shown.

Experiments:
[1] = system: P. acnes; experiment: MIC against P. acnes; assay type: cell-based
[2] = system: TNFα; experiment: LPS-induced TNFα production in PMA-differentiated U937 cells (ELISA); assay type: cell-based, human
Experimental: EXAMPLE. […] Cells. The human monocytic cell line U937 was obtained from the American Type Culture Collection (ATCC, Rockville, Md.). PBMCs from COPD patients were obtained from Brompton hospital and separated by AccuSPIN (Sigma-Aldrich). […] U937 cells were differentiated into adherent macrophage-like morphology by exposure to PMA (50 ng/ml) for 48 h in complete growth medium. Cell viability was assessed microscopically by trypan blue staining. Cell toxicity was determined by MTT assay as needed. This study was approved by the ethics committee of the Royal Brompton Hospitals, and all subjects gave written informed consent. Cytokine ELISA. TNFα and IL-8 concentrations in the supernatant of cell cultures were determined by sandwich ELISA according to the manufacturer's instructions (R&D Systems Europe, Abingdon, UK). Statistical analysis. The results were expressed as the mean±SEM. Comparisons of data in two groups were performed using the Student's t test or the Wilcoxon signed rank test. Multiple comparisons were made by one-way ANOVA with post hoc test (Dunnett's) as appropriate. The difference was considered significant at p<0.05. […] Anti-inflammatory effects of solithromycin in U937 cells.

[3] = system: L. monocytogenes and S. aureus; experiment: Antibacterial activity at acidic pH compared with Azi; assay type: cell-based; settings: including L. monocytogenes and S. aureus
[4] = system: Listeria monocytogenes; experiment: MIC against Listeria monocytogenes; assay type: cell-based; settings: N 10
[5] = system: Streptococcus pneumoniae; experiment: MIC against Streptococcus pneumoniae; assay type: cell-based
[6] = Streptococcus pneumoniae, N 150

SMILES: CC[C@H]1OC(=O)[C@@](C)(F)C(=O)[C@H](C)[C@@H](O[C@@H]2O[C@H](C)C[C@H](N(C)C)[C@H]2O)[C@](C)(OC)C[C@@H](C)C(=O)[C@H](C)[C@H]2N(CCCCn3cc(-c4cccc(N)c4)nn3)C(=O)O[C@]12C [Solithromycin, solithromycin]
- MIC 50% ([1]; P. acnes): 0.015 µg/mL (≈ 0.0178 µM)
- MIC 90% ([1]; P. acnes (51 species)): 0.06 µg/mL (≈ 0.071 µM)
- MIC Range ([1]; P. acnes (51 species)): ≤0.002 to 0.25 µg/mL
- IC50 ([2]; LPS, PMA-differentiated U937 cells, read-out: IC50 on TNFα release): 41.6 ± 1.9 µM
- inhibition of TNFα production (in words) ([2]; solithromycin and telithromycin at 100 μM, clarithromycin at 333 μM): significantly inhibited
- activity at acidic pH relative to Azi [3]: 100-200 fold
- MIC50 [4]: 0.03 µg/mL (≈ 0.0355 µM)
- MIC90 [4]: 0.03 µg/mL (≈ 0.0355 µM)
- MIC Range [4]: 0.03 µg/mL (≈ 0.0355 µM)
- MIC90 ([5]; Streptococcus Pneumoniae (150 strains)): 0.25 µg/mL (≈ 0.296 µM)
- MIC50 [5, 6]: 0.015 µg/mL (≈ 0.0178 µM)
- MIC90 [5, 6]: 0.25 µg/mL (≈ 0.296 µM)
- MIC Range [5, 6]: ≤0.008 to 0.5 µg/mL
